According to PubChem BioAssay (NCI):
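Five concentrations, 48 hours, 96-well plates. TGI: total growth inhibition.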

Legend:
Experiment in all cases: NCI tumour cell line growth inhibition, 48 h
[1] = tested on: 786-0 renal
[2] = tested on: A498 renal
[3] = tested on: A549 NSCLC
[4] = tested on: ACHN renal
[5] = tested on: BT-549 breast
[6] = tested on: CAKI-1 renal
[7] = tested on: COLO 205 colon
[8] = tested on: DU-145 prostate
[9] = tested on: EKVX NSCLC
[10] = tested on: HCC-2998 colon
[11] = tested on: HCT-116 colon
[12] = tested on: HCT-15 colon
[13] = tested on: HL-60(TB) leukemia
[14] = tested on: HOP-62 NSCLC
[15] = tested on: HOP-92 NSCLC
[16] = tested on: HS 578T breast
[17] = tested on: HT29 colon
[18] = tested on: IGROV1 ovarian
[19] = tested on: K-562 leukemia
[20] = tested on: KM12 colon
[21] = tested on: LOX IMVI melanoma
[22] = tested on: M14 melanoma
[23] = tested on: MALME-3M melanoma
[24] = tested on: MCF7 breast
[25] = tested on: MDA-MB-231 breast
[26] = tested on: MDA-MB-435
[27] = tested on: MDA-N
[28] = tested on: MOLT-4 leukemia
[29] = tested on: NCI-H226 lung
[30] = tested on: NCI-H23 lung
[31] = tested on: NCI-H460 lung
[32] = tested on: NCI-H522 lung
[33] = tested on: NCI/ADR-RES ovarian
[34] = tested on: OVCAR-3 ovarian
[35] = tested on: OVCAR-4 ovarian
[36] = tested on: OVCAR-5 ovarian
[37] = tested on: OVCAR-8 ovarian
[38] = tested on: PC-3 prostate
[39] = tested on: RPMI-8226 leukemia
[40] = tested on: RXF 393 renal
[41] = tested on: SF-268 CNS
[42] = tested on: SF-295 CNS
[43] = tested on: SK-MEL-2 melanoma
[44] = tested on: SK-MEL-28 melanoma
[45] = tested on: SK-MEL-5 melanoma
[46] = tested on: SK-OV-3 ovarian
[47] = tested on: SN12C renal
[48] = tested on: SNB-19 CNS
[49] = tested on: SNB-75 CNS
[50] = tested on: SW-620 colon
[51] = tested on: T-47D breast
[52] = tested on: TK-10 renal
[53] = tested on: U251 CNS
[54] = tested on: UACC-257 melanoma
[55] = tested on: UACC-62 melanoma
[56] = tested on: UO-31 renal
[57] = tested on: CCRF-CEM leukemia
[58] = tested on: SF-539 CNS
[59] = tested on: SR leukemia

Measured: TGI

N=C(N)C(N=Nc1ccccc1)C(N)=O (stereo not given)
not listed: [57] | [58] | [59]
> 100 µM: all other assays above

Cc1nn(C(=O)c2ccncc2)c2c1C(c1ccc(Cl)cc1)SC(N)=N2 (stereo not given)
not listed: [2] | [32] | [46] | [53] | [56]
> 10 µM: all other assays above
